Ends that are not written are not given here.
Tests used:
MC3T3-E1 cells [1] = assay: cAMP screen of EALK-PTHrP(1-31)/(1-34) variants (% parent); assay type: cell-based
Description: FIGS. 32A and 32B are graphs showing the effects of amino acid substitutions in the 29-31 region of EALK-PTHrP(1-31) (SEQ ID NO:94) (FIG. 32A) and the 29-33 region of EALK-PTHrP(1-34) (SEQ ID NO:112) (FIG. 32B) on induction of cAMP activity in MC3T3-E1 cells. Substitutions at position 29 for EALK-PTHrP(1-31) were G^29 to S^29 (SEQ ID NO:95-96), L^29 (SEQ ID NO:176), and N^29 to K^29 (SEQ ID NO:97-101). Substitutions at position 30 for EALK-PTHrP(1-31) were G^30 to D^30 (SEQ ID NO:102-106), W^30 (SEQ ID NO:177), and K^30 (SEQ ID NO:107). […] Substitutions for EALK-PTHrP(1-34) A^30 to A^33 (SEQ ID NO:113-116) and EALK-PTHrP(1-28)/PTH(29-34) (SEQ ID NO:117).
To optimize the activity of the EALK-PTHrP peptides, we generated EALK-PTHrP([…]) and PTHrP(1-34) variants with substitutions in the 29-33 region. In the 1-30 scaffold, Gly, Ser, Leu, Asn, Gln, Trp, Glu, and Lys were substituted at position 29; Gly, Ser, Leu, Asn, Asp, Trp, and Lys were substituted at position 30; and Ser, Leu, Asn, Val, Trp, Glu, and Lys were substituted at position 31. […] A predicted advantage of these longer-length peptides, relative to the PTHrP(1-30) scaffold, is that they will have longer a longer half-life in circulation due to slower clearance. The C-terminal substitutions were thus designed to provide the added chain length, but to avoid increasing R^0 binding affinity, which occurs when the native PTHrP(29-34) region (SEQ ID NO:186) is installed. These peptides were tested for cAMP activity in MC3T3-E1 cells.

MC3T3-E1 cells [2] = assay: cAMP in MC3T3-E1 cells, dose-response; assay type: cell-based; conditions: Table 3; read-out: dose-response cAMP in MC3T3-E1 (EC50)
Procedure: In the 1-30 scaffold, Gly, Ser, Leu, Asn, Gln, Trp, Glu, and Lys were substituted at position 29; Gly, Ser, Leu, Asn, Asp, Trp, and Lys were substituted at position 30; and Ser, Leu, Asn, Val, Trp, Glu, and Lys were substituted at position 31. […] These peptides were tested for cAMP activity in MC3T3-E1 cells.

[3] = molecular target: T1, human PTHR, G protein-coupled conformation (RG) (Homo sapiens, UniProt Q03431); assay: Competition binding to RG conformation of hPTHR (COS-7 membranes, GαsND, 125I-[Aib1,3,M]PTH(1-15) tracer); conditions: parent PTHrP(1-28)NH
T1 construct: expressed in transfected cells; host or cells: COS-7, transient (Fugene-6); membranes
T1 sequence (Q03431 27-593): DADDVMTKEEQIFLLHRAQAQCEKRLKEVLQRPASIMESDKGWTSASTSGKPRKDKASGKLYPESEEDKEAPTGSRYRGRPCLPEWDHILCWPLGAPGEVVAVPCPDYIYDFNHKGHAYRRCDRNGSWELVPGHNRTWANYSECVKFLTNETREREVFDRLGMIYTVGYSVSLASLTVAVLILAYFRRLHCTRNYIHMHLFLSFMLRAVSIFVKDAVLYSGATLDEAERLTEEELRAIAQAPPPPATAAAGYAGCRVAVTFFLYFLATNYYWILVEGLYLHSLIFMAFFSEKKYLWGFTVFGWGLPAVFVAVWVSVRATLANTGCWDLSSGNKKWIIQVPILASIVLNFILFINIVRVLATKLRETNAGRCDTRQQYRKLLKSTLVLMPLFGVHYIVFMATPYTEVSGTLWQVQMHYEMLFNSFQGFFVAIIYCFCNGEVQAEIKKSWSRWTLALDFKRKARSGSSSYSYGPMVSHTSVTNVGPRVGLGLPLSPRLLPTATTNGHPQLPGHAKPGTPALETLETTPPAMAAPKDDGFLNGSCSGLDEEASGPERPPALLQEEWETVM

[4] = molecular target: T2, human PTHR, G protein-uncoupled conformation (R^0) (Homo sapiens, UniProt Q03431); assay: Competition binding to R0 conformation of hPTHR (COS-7 membranes, GTPγS, 125I-PTH(1-34) tracer); conditions: parent PTHrP(1-28)NH
T2 construct: expressed in transfected cells; host or cells: COS-7, transient (Fugene-6)
T2 sequence (Q03431 27-593): T1 sequence (Q03431 27-593)
Procedure: Membranes were prepared from COS-7 cells transfected with the hPTHR alone. GTPγS ([…]) was added to the binding reactions so as to functionally uncouple receptor-heterotrimeric G protein complexes, thus enriching for the R^0 (and R) conformations, relative to RG.
Reactions contained a total membrane protein concentration of 20 to 100 μg/mL, and a total radioactivity concentration of approximately 150,000 cpm/ml. Unlabeled peptide ligands and/or GTPγS (Sigma-Aldrich Inc. St. Louis, Mo.) were added to the reactions as indicated.
Membranes, tracer radioligand, and various concentrations of unlabeled ligands and/or GTPγS were incubated in the wells for 90 minutes, following which, the reaction plates were processed by rapid vacuum filtration to separate bound from free radioligand, as described above. […] For both radioligands, the non-specific binding was determined in reactions containing a saturating concentration of the unlabeled analog of the radioligand. The specifically bound radioactivity was calculated as a percent of the radioactivity specifically bound in the absence of a competing ligand or GTPγS.
To assess the capacities of various unlabeled peptide ligands to bind to the G protein-uncoupled and G protein-coupled PTHR conformations (R^0 and RG, respectively), membranes were prepared from transiently transfected COS-7 cells and the following assay conditions.

[5] = system: LLCPK1-B64 cells or SaOS-2 cells; assay: cAMP screen of substituted PTHrP(1-28) analogs (% parent); assay type: cell-based; conditions: parent PTHrP(1-28)NH
Procedure: Alanine substitution at position 18, 22, 25 and 26 increased activity in at least one cell type. These positions were further substituted to various types of amino acids, and cAMP activity was analyzed in LLCPK1-B64 cells (FIG. 27C) or SaOS-2 cells (FIG. 27D). Cells were treated with analogs at 3×10^−9M in the presence of IBMX for 30 minutes at room temperature. Responses for each analog were normalized to the response for the parent (native) PTHrP(1-28) peptide. Alanine substitutions were A^15 to A^17 (SEQ ID NO:152-154), A^18 (SEQ ID NO:34), A^19 to A^21 (SEQ ID NO:155-157), A^22 (SEQ ID NO:39), A^23 to A^25 (SEQ ID NO:158-160), A^26 (SEQ ID NO:46), and A^27 to A^28 (SEQ ID NO:161-162). Substitutions at position 18 were A^18 (SEQ ID NO: 34), G^18 (SEQ ID NO:163), S^18 (SEQ ID NO:35), M^18 (SEQ ID NO:36), L^18 (SEQ ID NO:164), F^18 (SEQ ID NO:37), N^18 (SEQ ID NO:165), E^18 (SEQ ID NO:38), and K^18 (SEQ ID NO:166). Substitutions at position 22 were A^22 (SEQ ID NO:39), G^22 (SEQ ID NO:167), and S^22 to K^22 (SEQ ID NO:40-45). Substitutions at position 26 were A^26 (SEQ ID NO:46), G^26 (SEQ ID NO:168), S^26 (SEQ ID NO:47), L^26 (SEQ ID NO:169), N^26 (SEQ ID NO:48), W^26 to E^26 (SEQ ID NO:170-171), and K^26 to R^26 (SEQ ID NO:49-50). Substitutions at position 25 were G^25 to S^25 (SEQ ID NO:172-173), L^25 (SEQ ID NO:51), N^25 (SEQ ID NO:174), W^25 (SEQ ID NO:52), E^25 (SEQ ID NO:175), and K^25 to R^25 (SEQ ID NO:53-54). […]

[6] = parent E18,A22,L25,K26-PTHrP(1-31)OH
[7] = parent E18,A22,L25,K26-PTHrP(1-34)OH

| Substance | screen cAMP (% parent) (MC3T3-E1 cells [1]; [6]) | screen human PIR RG (% parent) [3] [% parent] | screen human PIR R0 (% parent) [4] [% parent] | screen cAMP (% parent) [5] [% parent] | also measured |
| --- | --- | --- | --- | --- | --- |
| E18,A22,L25,K26,G30-PTHrP(1-31) (AVSEHQLLHDKGKSIQDERRRAFLLKLIAGI-OH) [E18, A22, L25, K26, G30-PTHrP(1-31)OH] | 286 | – | – | – | – |
| E18,A22,L25,K26,L30-PTHrP(1-31) (AVSEHQLLHDKGKSIQDERRRAFLLKLIALI-OH) [E18, A22, L25, K26, L30-PTHrP(1-31)OH] | 185 | – | – | – | – |
| AVSEHQLLHDKGKSIQDERRRAFLHHKIAE [E18, A22, K27-PTHrP(1-30)NH, E18,A22,K27-PTHrP(1-30)] | – | – | – | – | EC50 (MC3T3-E1 cells [2]): 0.082 nM |
| AVSEHQLLHDKGKSIQDARRRAFLLKLIAEI [A18, 22, L25, K26-PTHrP(1-31)NH, A18,22,L25,K26-PTHrP(1-31)] | – | – | – | – | EC50 (MC3T3-E1 cells [2]): 0.2 nM |
| AVSEHQLLHDKGKSIQDERRRAFLLKLIAEI [E18, A22, L25, K26-PTHrP(1-31)NH, E18,A22,L25,K26-PTHrP(1-31)] | – | – | – | – | EC50 (MC3T3-E1 cells [2]): 0.112 nM |
| E18,A22,L25,K26,S31-PTHrP(1-31) (AVSEHQLLHDKGKSIQDERRRAFLLKLIAES-OH) [E18, A22, L25, K26, S31-PTHrP(1-31)OH] | 99 | – | – | – | – |
| E18,A22,L25,K26,A33-PTHrP(1-34) (AVSEHQLLHDKGKSIQDERRRAFLLKLIAEIHAA-OH) [E18, A22, L25, K26, A33-PTHrP(1-34)OH] | – | – | – | – | screen cAMP (% parent) (MC3T3-E1 cells [1]; [7]): 196 % parent |
| E18,A22,L25,K26,W29-PTHrP(1-31) (AVSEHQLLHDKGKSIQDERRRAFLLKLIWEI-OH) [E18, A22, L25, K26, W29-PTHrP(1-31)OH] | 142 | – | – | – | – |
| AVSEHQLLHDKGKSIQDARRRAFLHKLIAE [A18, 22, K26-PTHrP(1-30)NH, A18,22,K26-PTHrP(1-30)] | – | – | – | – | EC50 (MC3T3-E1 cells [2]): 0.058 nM |
| E18,W22,A26-PTHrP(1-28) (AVSEHQLLHDKGKSIQDERRRWFLHALI-NH2) [E18, W22, A26-PTHrP(1-28)NH] | – | 116 | 18.8 | 75 | – |
| AVSEHQLLHDKGKSIQDARRRAFLHKLIAEI [A18, 22, K26-PTHrP(1-31)NH, A18,22,K26-PTHrP(1-31)] | – | – | – | – | EC50 (MC3T3-E1 cells [2]): 0.06 nM |
| E18,A22,L25,K26,N30-PTHrP(1-31) (AVSEHQLLHDKGKSIQDERRRAFLLKLIANI-OH) [E18, A22, L25, K26, N30-PTHrP(1-31)OH] | 189 | – | – | – | – |
| E18,S22,A26-PTHrP(1-28) (AVSEHQLLHDKGKSIQDERRRSFLHALI-NH2) [E18, S22, A26-PTHrP(1-28)NH] | – | 132 | 31.9 | 119 | – |
| E18,A22,L25,K26,E29-PTHrP(1-31) (AVSEHQLLHDKGKSIQDERRRAFLLKLIEEI-OH) [E18, A22, L25, K26, E29-PTHrP(1-31)OH] | 100 | – | – | – | – |
| E18,A22,L25,K26,K31-PTHrP(1-31) (AVSEHQLLHDKGKSIQDERRRAFLLKLIAEK-OH) [E18, A22, L25, K26, K31-PTHrP(1-31)OH] | 134 | – | – | – | – |
| E18,L22,A26-PTHrP(1-28) (AVSEHQLLHDKGKSIQDERRRLFLHALI-NH2) [E18, L22, A26-PTHrP(1-28)NH] | – | 125 | 52.5 | 139 | – |
| E18,N22,K26-PTHrP(1-28) (AVSEHQLLHDKGKSIQDERRRNFLHKLI-NH2) [E18, N22, K26-PTHrP(1-28)NH] | – | 147 | 84.4 | 236 | – |
| A18,W22,K26-PTHrP(1-28) (AVSEHQLLHDKGKSIQDARRRWFLHKLI-NH2) [A18, W22, K26-PTHrP(1-28)NH] | – | 115 | 136 | 267 | – |
| E18,N22,A26-PTHrP(1-28) (AVSEHQLLHDKGKSIQDERRRNFLHALI-NH2) [E18, N22, A26-PTHrP(1-28)NH] | – | 140 | 53.7 | 171 | – |
| E18,A22,L25,K26,A32-PTHrP(1-34) (AVSEHQLLHDKGKSIQDERRRAFLLKLIAEIATA-OH) [E18, A22, L25, K26, A32-PTHrP(1-34)OH] | – | – | – | – | screen cAMP (% parent) (MC3T3-E1 cells [1]; [7]): 197 % parent |
| A18,26,N22-PTHrP(1-28) (AVSEHQLLHDKGKSIQDARRRNFLHALI-NH2) [A18, 26, N22-PTHrP(1-28)NH] | – | 161 | 136 | 265 | – |

Source: patent US9057727B2, “Screening methods using G-protein coupled receptors and related compositions” (The General Hospital Corporation, priority 2007, dated 2015)
